In patent US6749850B1, “Methods, compositions and kits for promoting recovery from damage to the central nervous system” (The General Hospital Corporation, priority 1999, dated 2004):

B1: BDNF: polypeptide growth factor, administered conjointly with bone marrow cells in a cited study (Chen et al. 2000) (protein, UniProt P23560 19-247, looked up)
Neurotrophic factor BDNF …: APMKEANIRGQGGLAYPGVRTHGTLESVNGPKAGSRGLTSLADTFEHVIEELLDEDQKVRPNEENNKDADLYTSRVMLSSQVPLEPPLLFLLEEYKNYLDAANMSMRVRRHSDPARRGELSVCDSISEWVTAADKKTAVDMSGGTVTVLEKVPVSKGQLKQYFYETKCNPMGYTKEGCRGIDKRHWNSQCRTTQSYVRALTMDSKKRIGWRFIRIDTSCVCTLTIKRGR

Experiments:
[1] = system: rat stroke model (focal cerebral infarction, middle cerebral artery electrocoagulation); experiment: Example 1: sensorimotor behavioural tests after intracisternal treatment in rat stroke model; assay type: in vivo
Method: In this example, fetal mouse neural stem cells (NSC) with or without basic fibroblast growth factor (bFGF) were administered intracisternally in a model of stroke recovery in rats. Male Sprague-Dawley rats, 300-350 grams, were handled for one week before surgery. They received an antibiotic, cefazolin sodium (40 mg/kg, i.p.), one day before stroke surgery. On the day of stroke surgery, animals were anesthetized by 2% halothane in a […]/oxygen mixture (2:1). Focal cerebral infarction, (stroke) was performed by proximal electrocoagulation of the middle cerebral artery, as described previously (Kawamata et al. (1999) Exp. Neurol. 158, 89-96; Tamura et al. (1981) J. Cereb. Blood Flow Metab. 1, 53-60). […] This technique produces a robust and reproducible infarct, or region of cell death, in the dorsolateral cerebral cortex and underlying striatum. Animals received another injection of cefazolin sodium (40 mg/kg, i.p.) immediately after surgery. They were then allowed to awaken from anesthesia.
Twenty-four hours after stroke surgery, animals received an intracisternal injection of either: (1) vehicle, (2) NSC (10^6 cells), (3) bFGF (0.5 μg), or (4) NSC+bFGF. Intracisternal injection in 50 μl total volume was done through percutaneous injection into the cisterna magna under halothane anesthesia. This same procedure was repeated two days later so that animals received treatment on days 1 and 3 following stroke. Cyclosporin, an immunosuppressant, was administered at 10 mg/kg, i.p. for the duration of the experiment.
The cerebral infarcts produced by the procedure cause sensorimotor dysfunction of the contralateral hindlimb and forelimb. For the next month following stroke, a number of neurological tests were done to assess sensorimotor function of the contralateral limbs. These tests include both the forelimb and hindlimb placing tests which test the animal's ability to place the limb on a tabletop in response to visual, tactile, proprioceptive, and whisker stimulation. […]

[2] = system: rat stroke model (focal cerebral infarction, middle cerebral artery electrocoagulation); experiment: Example 2: behavioural tests after intracerebral NSC and intracisternal bFGF in rat stroke model; assay type: in vivo; conditions: single administration one day after stroke
Method: In a second experiment, NSC were injected directly into the brain into tissue surrounding focal strokes. bFGF was injected intracisternally, as before. In this experiment only one administration of NSC or bFGF was performed at one day after stroke.
In this experiment, animals were handled for one week before surgery. In addition, they were trained on an additional test, the paw reaching test (see below) for 10 days before surgery. As before, they received cefazolin sodium (40 mg/kg, i.p.) before surgery. On the day of surgery, electrocoagulation of the proximal middle cerebral artery was done, as described previously (Kawamata et al. (1996) J. Cereb. Blood Flow Metab. 16, 542-547; Kawamata et al. (1997) Proc. Nat. Acad Sci. 94, 8179-8184; Kawamata et al. (1999) Exp. Neurol. 158, 89-96). They received another injection of cefazolin sodium, 40 mg/kg, i.p. after surgery.
At one day after stroke, animals received either: (1) vehicle injection into periinfarct tissue, and vehicle injection into the cisterna magna, (2) NSC (10^6 cells) into periinfarct tissue and vehicle into the cisterna magna, (3) vehicle into periinfarct tissue and bFGF (0.5 μg) into the cisterna magna or (4) the combination NSC (10^6 cells) into periinfarct tissue and bFGF (0.5 μg) into the cisterna magna.
These injections were done with a volume of 25 μl each under 2% halothane anesthesia. […]

animal models of stroke = conditions: administered starting a day or more after stroke; cited from earlier work
rat stroke model = conditions: BDNF administered conjointly with bone marrow cells; cited from earlier work

| Molecule | recovery on limb placing tests (forelimb and hindlimb) ([1]; intracisternal on days 1 and 3 after stroke, NSC 10^6 cells, bFGF 0.5 μg, compared to placebo, FIGS. 1A-1B) | body swing test ([1]; intracisternal on days 1 and 3 after stroke, compared to placebo, FIG. 1C) | sensorimotor recovery of the contralateral limbs (summary) ([1]; intracisternal starting one day after stroke) | behavioral outcome overall (summary of tests) [2] | recovery on forelimb and hindlimb placing tests ([2]; NSC 10^6 cells periinfarct, bFGF 0.5 μg cisterna magna, compared to placebo, FIGS. 2A-2B) | recovery on tests of sensorimotor function of the impaired limbs (animal models of stroke) | recovery in a rat stroke model (rat stroke model) |
| --- | --- | --- | --- | --- | --- | --- | --- |
| bFGF: basic fibroblast growth factor, a protein that supports survival and axonal outgrowth from neurons | significantly enhanced recovery compared to placebo | No differences | significantly enhance sensorimotor recovery | improved behavioral outcome on some tests | superiority in recovery | recover more quickly and to a greater extent | – |
| B1 | – | – | – | – | – | – | improve recovery |
